Assay [1] relates to SMARCA4 mutated cancer cells. The following applies: SMARCA 2/4 bromodomain inhibitors; literature statement; cited from earlier work.
A further assay has as its target T1, SMARCA2 (Homo sapiens, UniProt P51531).
T1 construct: SMARCA2-HiBiT knock-in Hela monoclonal cell (CS302366) and SMARCA4-HiBiT knock-in Hela monoclonal cell (CS3023226) were purchased from Promega; host or cells: HeLa SMARCA2-HiBiT knock-in monoclonal cells (heterozygous knock-in)
In words: SMARCA2 HiBiT degradation assay in HeLa cells. The assay is classed as cell-based. The conditions noted are these: 18 hours incubation, Nano-Glo HiBiT Lytic detection. Here is the method: (§1) Example A. SMARCA2 HiBiT and SMARCA4 HiBiT Degradation Assay
(§2) HiBiT peptide knock-in of SMARCA2 in LgBiT expressing HEK293T cells was performed by CRISPR-mediated tagging system as described Promega. The homozygous HiBiT knock-in on c-terminus SMARCA2 was confirmed by sanger sequence. SMARCA2-HiBiT knock-in Hela monoclonal cell (CS302366) and SMARCA4-HiBiT knock-in Hela monoclonal cell (CS3023226) were purchased from Promega. The heterozygous HiBiT-knock-in was confirmed by sanger sequence in both SMARCA2-HiBiT and SMARCA4-HiBiT monoclonal cells.
(§3) SMARCA2 HiBiT and SMARCA4 HiBiT degradation assay in HeLa cells
(§4) Dispense 10 ul aliquot of prepared Hela-SMARCA2-HiBiT or Hela-SMARCA4-HiBiT cells (1:1 ratio of cells:Trypan Blue (#1450013, Bio-Rad)) onto cell counting slide (#145-0011, Bio-Rad) and obtain cell density and cell viability using cell counter (TC20, Bio-Rad). Remove appropriate volume of resuspended cells from culture flask to accommodate 2500 cells/well @20 μL/well. Transfer Hela-HiBiT cells to 50 mL conical (#430290, Corning). Spin down at 1000 rpm for 5 min using tabletop centrifuge (SPINCHRON 15, Beckman). Discard supernatant and resuspend cell pellet in modified EMEM (#30-2003, ATCC) cell culture media containing 10% FBS (F2422-500ML, Sigma), and 1X Penicillin/Streptomycin (200 g/L) (30-002-CI, Corning) to a cell density of 125,000 cells/mL. Dispense 20 μLof resuspended Hela-HiBit cells per well in 384-well TC treated plate (#12-565-343, Thermo Scientific) using standard cassette (#50950372, Thermo Scientific) on Multidrop Combi (#5840310, Thermo Scientific) inside laminar flow cabinet.
(§5) Compounds were dissolved in DMSO to make 10 mM stock and 3-fold series dilutions were further conducted keeping the highest concentration 10 RM. Dispense test compounds onto plates using digital liquid dispenser (D300E, Tecan). Incubate plates in humidified tissue culture incubator @37° C. for 18 hours. Add 20 μL of prepared Nano-Glo® HiBiT Lytic detection buffer (N3050, Promega) to each well of 384-well plate using small tube cassette (#24073295, Thermo Scientific) on Multidrop Combi, incubate @ RT for 30-60 min. Read plates on microplate reader (Envision 2105, PerkinElmer) using 384 well Ultra-Sensitive luminescence mode. Raw data files and compound information reports are swept into centralized data lake and deconvoluted using automated scripts designed by TetraScience, Inc. Data analysis, curve-fitting and reporting done in Dotmatics Informatics Suite using Screening Ultra module.
(§6) In Table 1, A=DC50<0.1 RM; B=0.1 μM≤DC50<1 μM and C=DC50>1 μM. In Table 4, A=Dmax>75% and B=50%<Dmax<75% and C=Dmax<50%.
(In general: With HiBiT, luminescence reflects the tagged protein that the partner subunit can reach.)

Another assay concerns the target T2, SMARCA4 (Homo sapiens, UniProt P51532).
T2 construct: SMARCA2-HiBiT knock-in Hela monoclonal cell (CS302366) and SMARCA4-HiBiT knock-in Hela monoclonal cell (CS3023226) were purchased from Promega; host or cells: HeLa SMARCA4-HiBiT knock-in monoclonal cells (heterozygous knock-in)
In words: SMARCA4 HiBiT degradation assay in HeLa cells. The assay is classed as cell-based. The conditions noted are these: 18 hours incubation, Nano-Glo HiBiT Lytic detection. As for the experimental part:
as §1, §2, §3, §4, §5, §6

T1 sequence (P51531 whole entry): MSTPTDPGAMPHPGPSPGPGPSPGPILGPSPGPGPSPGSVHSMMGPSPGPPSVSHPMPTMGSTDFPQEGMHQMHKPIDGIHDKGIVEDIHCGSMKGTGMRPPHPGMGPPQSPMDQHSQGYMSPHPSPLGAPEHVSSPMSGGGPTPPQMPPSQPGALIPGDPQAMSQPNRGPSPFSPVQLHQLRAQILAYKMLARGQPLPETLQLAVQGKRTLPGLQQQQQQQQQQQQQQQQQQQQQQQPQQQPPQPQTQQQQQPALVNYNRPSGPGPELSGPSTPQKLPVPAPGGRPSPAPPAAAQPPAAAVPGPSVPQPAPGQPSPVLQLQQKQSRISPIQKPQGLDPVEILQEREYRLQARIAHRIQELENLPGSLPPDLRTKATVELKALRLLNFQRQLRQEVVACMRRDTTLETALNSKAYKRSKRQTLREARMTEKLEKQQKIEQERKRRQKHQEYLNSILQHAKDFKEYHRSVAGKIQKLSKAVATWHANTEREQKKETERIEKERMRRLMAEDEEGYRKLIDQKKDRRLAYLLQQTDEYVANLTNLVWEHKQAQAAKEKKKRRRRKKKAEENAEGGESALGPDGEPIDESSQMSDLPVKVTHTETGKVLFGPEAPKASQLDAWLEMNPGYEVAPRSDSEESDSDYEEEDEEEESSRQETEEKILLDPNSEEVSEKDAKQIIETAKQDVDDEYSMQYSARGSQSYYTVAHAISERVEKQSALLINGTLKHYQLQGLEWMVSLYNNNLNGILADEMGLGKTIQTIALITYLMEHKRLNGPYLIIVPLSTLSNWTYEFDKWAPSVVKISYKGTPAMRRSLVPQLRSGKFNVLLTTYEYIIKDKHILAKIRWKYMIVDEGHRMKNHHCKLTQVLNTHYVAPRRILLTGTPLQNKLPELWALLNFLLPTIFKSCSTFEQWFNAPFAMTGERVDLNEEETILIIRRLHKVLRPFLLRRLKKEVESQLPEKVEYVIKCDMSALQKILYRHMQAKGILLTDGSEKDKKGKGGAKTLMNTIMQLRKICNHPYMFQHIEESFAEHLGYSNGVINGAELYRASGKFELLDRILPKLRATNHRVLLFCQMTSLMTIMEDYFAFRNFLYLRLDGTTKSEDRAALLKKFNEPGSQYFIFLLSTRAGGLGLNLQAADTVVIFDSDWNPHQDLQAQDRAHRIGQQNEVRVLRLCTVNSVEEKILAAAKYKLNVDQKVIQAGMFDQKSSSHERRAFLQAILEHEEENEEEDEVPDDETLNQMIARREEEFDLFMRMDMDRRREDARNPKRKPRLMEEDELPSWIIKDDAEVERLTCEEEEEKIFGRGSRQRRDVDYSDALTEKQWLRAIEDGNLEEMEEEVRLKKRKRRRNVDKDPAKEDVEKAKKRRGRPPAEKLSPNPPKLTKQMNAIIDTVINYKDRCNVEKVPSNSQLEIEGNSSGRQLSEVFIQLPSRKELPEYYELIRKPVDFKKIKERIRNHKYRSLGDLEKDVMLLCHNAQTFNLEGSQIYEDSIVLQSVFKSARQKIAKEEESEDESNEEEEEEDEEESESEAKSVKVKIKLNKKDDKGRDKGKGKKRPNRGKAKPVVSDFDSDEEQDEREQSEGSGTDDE
T2 sequence (P51532 whole entry): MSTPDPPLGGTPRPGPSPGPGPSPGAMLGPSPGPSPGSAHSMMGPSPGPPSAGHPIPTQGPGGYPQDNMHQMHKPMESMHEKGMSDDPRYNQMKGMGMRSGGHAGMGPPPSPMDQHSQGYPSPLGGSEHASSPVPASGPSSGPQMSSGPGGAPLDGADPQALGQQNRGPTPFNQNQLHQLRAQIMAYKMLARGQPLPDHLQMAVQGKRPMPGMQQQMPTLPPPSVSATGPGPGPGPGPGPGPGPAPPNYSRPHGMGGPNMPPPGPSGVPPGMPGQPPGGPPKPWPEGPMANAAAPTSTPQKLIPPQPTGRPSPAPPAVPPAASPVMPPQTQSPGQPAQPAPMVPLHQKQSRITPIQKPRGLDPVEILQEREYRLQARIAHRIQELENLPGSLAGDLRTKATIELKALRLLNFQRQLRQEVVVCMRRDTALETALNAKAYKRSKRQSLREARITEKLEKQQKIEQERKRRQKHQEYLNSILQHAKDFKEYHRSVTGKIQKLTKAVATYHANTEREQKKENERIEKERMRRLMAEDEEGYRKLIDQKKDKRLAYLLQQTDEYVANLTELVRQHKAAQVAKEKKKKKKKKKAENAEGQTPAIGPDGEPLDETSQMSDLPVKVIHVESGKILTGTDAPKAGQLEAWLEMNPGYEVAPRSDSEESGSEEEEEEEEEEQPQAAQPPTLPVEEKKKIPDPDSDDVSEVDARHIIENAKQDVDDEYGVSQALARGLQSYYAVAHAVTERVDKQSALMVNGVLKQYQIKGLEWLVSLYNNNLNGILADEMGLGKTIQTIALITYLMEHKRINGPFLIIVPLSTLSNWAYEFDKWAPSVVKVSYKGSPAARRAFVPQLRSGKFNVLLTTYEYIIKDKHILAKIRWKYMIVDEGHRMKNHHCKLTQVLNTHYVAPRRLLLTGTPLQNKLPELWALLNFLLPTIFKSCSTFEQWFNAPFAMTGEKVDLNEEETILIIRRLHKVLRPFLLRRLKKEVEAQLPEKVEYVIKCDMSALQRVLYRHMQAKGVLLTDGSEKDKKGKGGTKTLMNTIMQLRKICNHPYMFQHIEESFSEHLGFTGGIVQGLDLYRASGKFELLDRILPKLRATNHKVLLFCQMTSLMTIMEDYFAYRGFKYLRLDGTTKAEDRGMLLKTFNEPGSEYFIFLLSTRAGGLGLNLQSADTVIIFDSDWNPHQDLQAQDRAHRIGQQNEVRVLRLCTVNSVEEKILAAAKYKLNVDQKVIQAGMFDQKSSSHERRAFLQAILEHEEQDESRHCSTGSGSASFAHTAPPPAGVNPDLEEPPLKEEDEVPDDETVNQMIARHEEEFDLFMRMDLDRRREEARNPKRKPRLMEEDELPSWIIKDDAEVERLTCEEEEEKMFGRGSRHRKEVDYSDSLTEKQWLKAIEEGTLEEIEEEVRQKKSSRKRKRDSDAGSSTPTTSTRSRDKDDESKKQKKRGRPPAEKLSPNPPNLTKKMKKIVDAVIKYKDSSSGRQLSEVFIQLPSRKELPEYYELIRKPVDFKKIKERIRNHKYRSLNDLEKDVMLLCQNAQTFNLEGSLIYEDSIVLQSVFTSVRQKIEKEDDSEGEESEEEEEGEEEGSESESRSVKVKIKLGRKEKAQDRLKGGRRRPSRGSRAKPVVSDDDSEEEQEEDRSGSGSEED

In the case of `O=C(/C=C/N1C[C@H]2C[C@@H]1CN2c1ccccn1)c1ccccc1O` [PFI-3], the “effects on cell proliferation inhibition” value in assay [1] is reported as “none to minor effects”.

At SMARCA2, `C[C@@H]1CN(CC2CCN(c3ccc4ncn(C5CCC(=O)NC5=O)c(=O)c4c3)CC2)C[C@H](C)N1C(=O)N1CCN2c3cc(-c4ccccc4O)nnc3NC[C@H]2C1` (stereo partly drawn) [Example 2, 3-(6-(4-(((3R,5S)-4-((S)-2-(2-hydroxyphenyl)-6,6a,7,8,9,10-hexahydro-5H-pyrazino[1′,2′:4,5]pyrazino[2,3-c]pyridazine-8-carbonyl)-3,5-dimethylpiperazin-1-yl)methyl)piperidin-1-yl)-4-oxoquinazolin-3(4H)-yl)piperidine-2,6-dione] registered a DC50 below 100 nM and a Dmax of 50 to 75%. Moreover, at SMARCA4, the DC50 is 100 to 1000 nM and the greatest degradation seen (Dmax) was in the range of 50 to 75%.

On to `C[C@@H]1CN(CC2CCN(c3ccnc(C(=O)NC4CCC(=O)NC4=O)c3)CC2)C[C@H](C)N1C(=O)N1CCN2c3cc(-c4ccccc4O)nnc3NC[C@H]2C1` (stereo partly drawn) [Example 7, N-(2,6-dioxopiperidin-3-yl)-4-[4-[[(3R,5S)-4-[(1OS)-4-(2-hydroxyphenyl) 1,5,6,8,12-pentazatricyclo[8.4.0.02,7]tetradeca-2,4,6-triene-12-carbonyl]-3,5-dimethylpiperazin-1-yl]methyl]piperidin-1-yl]pyridine-2-carboxamide], for which, on SMARCA2, the 50% degradation concentration (DC50) is below 100 nM and the maximal degradation (Dmax) fell in the range of 50 to 75%. Moreover, on SMARCA4, the DC50 was above 1000 nM.

On SMARCA2, `CC[C@]12CNc3nnc(-c4ccccc4O)cc3N1C[C@H](Oc1ccc(CN3CCN(c4ccc(C5CCC(=O)NC5=O)cc4)CC3)cn1)C2` (stereo partly drawn) [Example 14, 3-(4-(4-((6-(((6aS,8R)-6a-ethyl-2-(2-hydroxyphenyl)-5,6,6a,7,8,9-hexahydro-pyrrolo[1′,2′:4,5]pyrazino[2,3-c]pyridazin-8-yl)oxy)pyridin-3-yl)methyl)piperazin-1-yl)phenyl)piperidine-2,6-dione] came in with a DC50 below 100 nM and a maximal degradation (Dmax) above 75%. Also, at SMARCA4, the DC50 is below 100 nM and the maximal degradation (Dmax) is above 75%.

In the case of `Cn1nc(N2CCC(=O)NC2=O)c2ccc(N3CCC(CN4C[C@@H]5[C@H](C4)[C@H]5CN4CCN5c6cc(-c7ccccc7O)nnc6NC[C@H]5C4)CC3)cc21` [Example 8, 1-[6-[4-[[(1S,5R)-6-[[(10S)-4-(2-hydroxyphenyl)-1,5,6,8,12-pentazatricyclo[8.4.0.02,7]tetradeca-2,4,6-trien-12-yl]methyl]-3-azabicyclo[3.1.0]hexan-3-yl]methyl]piperidin-1-yl]-1-methylindazol-3-yl]-1,3-diazinane-2,4-dione], the DC50 on SMARCA2 and at SMARCA4 was below 100 nM in each case. The Dmax at SMARCA2 and at SMARCA4 was 50 to 75% in each case.

As usually defined, the DC50 is the concentration giving 50% degradation. A higher DC50 goes with degradation only at high concentration. The Dmax is the greatest extent of degradation seen.
